According to US12448383B2, “Compounds and methods for treatment of viral infections” (priority 2022, dated 2025):
Like-named read-outs stand apart in the source and are kept apart here.

Key:
Plasma stability = assay type: in vitro ADME; parameters: unit not given here; conditions: 37° C., 2 μM substrate
Summary of the method: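 LC-MS (Q-Exactive, 5 ppm tolerance, 0.1% formic acid water/acetonitrile gradient) quantified compound in quenched aliquots. Aliquots were taken at 0.05, 0.5, 1, 2, 3 and 4 hr and quenched with internal-standard solution, and supernatants were diluted with water after centrifugation.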

[1] = system: Respiratory syncytial virus recombinant with luciferase (RSV-Luc5) in Normal Human Bronchial Epithelial (NHBE) cells; experiment: microbe, parasite or virus in culture; assay type: cell-based
[2] = GI S9 stability - no PMSF; assay type: in vitro ADME; conditions: pH 7.4; human intestinal S9, PMSF-free; read-out: GIS9-HUMAN-NoPMSF T1/2
Summary of the method: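 Stability was assessed by Q-Exactive LC-MS peak area ratios against internal standard, tracking loss of parent and appearance of nucleoside metabolite Reference Compound A. Incubations used 2 μM compound in 1 mg/mL intestinal S9 without PMSF (PBS, pH 7.4), with six samples taken over 120 min.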

GI S9 stability = assay type: in vitro ADME
Method: Example G: GI S9 Stability
Duplicate aliquots of test compound or positive control substrate (GS-7340) were added to S9 stock diluted with 100 mM phosphate buffered saline, pH 7.4, to obtain a protein concentration of 1.0 mg/mL. The S9 metabolic reactions were initiated by the addition of the substrates to the S9 reaction mixture to a final concentration of 2 μM. At 0, 10, 20, 30, 60 and 120 min, […] aliquots of the reaction mixture were transferred to plates containing […] of IS/Q solution. After quenching, the plates were centrifuged at 3000 g for 30 minutes, and 150 μL aliquots of each supernatant were diluted with 150 μL water. Aliquots ([…]) of the diluted supernatant were analyzed on a Thermo Q-Exactive mass spectrometer as described below. GI S9 Stability—No phenylmethylsulfonyl fluoride (PMSF): Similar to the procedure described above, test compounds were incubated at 2 μM with 1 mg/mL PMSF-free Intestinal S9 fractions. Samples are removed at 6 time points over the course of a 120 min experiment and the parent compound disappreance and reference compound A formation is determined by mass spectrometry.
Example K: Liquid Chromatography/Mass Spectroscopy Methods for S9 and Plasma Stability
Quantification of test compounds, Reference Compound A (S9 stability assay nucleoside metabolite), and controls was performed by analyte/internal standard peak area ratio (PAR) values measured on a Thermo Q-Exactive mass spectrometer coupled to a Dionex UltiMate 3000 HPLC with a Leap Technologies HTC PAL autosampler. The column used for analysis of test compounds and Reference Compound A was a Waters Acquity BEH C18 ([…] particle size, 2.1′50 mm). The column used for control (GS-7340) was a Thermo Hypersil GOLD ([…] particle size, 2.1′50 mm). Mobile phase A consisted of 0.1% (v/v) formic acid in water. Mobile phase B consisted of 0.1% (v/v) formic acid in acetonitrile. Elution of analytes was achieved by a series of linear gradients of acetonitrile in water containing 0.1°(v/v) formic acid. The mass spectrometer was calibrated on a weekly basis and mass tolerance of 5 ppm was used.

[3] = system: SARS Coronavirus 2 recombinant with NanoLuc (SARS-CoV2-NLuc) in A549-hACE2 cells; experiment: organism not typed; assay type: cell-based
[4] = CC50 MT4 cytotoxicity (Cell-Titer Glo); assay type: cell-based; conditions: human
Summary of the method: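 CC50 values are the concentrations cutting viability by 50%, fitted by non-linear regression against untreated (100%) and 2 μM puromycin (0%) controls. Cell-Titer Glo luminescence measured after 4-5 days at 37° C exposure of uninfected MT-4 and HEp-2 cells to 3-fold dilutions spanning 15 nM to 100,000 nM.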

[5] = system: Respiratory syncytial virus recombinant with luciferase (RSV-Luc5) in HEp-2 cells; experiment: microbe, parasite or virus in culture; assay type: cell-based; conditions: human respiratory syncytial virus
[6] = system: Caco-2 cells (clone C2BBe1); experiment: CACO-2 permeability; assay type: in vitro ADME; parameters: unit not given here; conditions: for DM Caco2 A to B: apical to basolateral, donor pH 6.5, receiver pH 7.4; for DM Caco2 B to A: basolateral to apical
Summary of the method: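 A-to-B and B-to-A flux measured by LC-MS/MS from receiver samples taken at 1 and 2 h, with donor sampled at 0 and 2 h and recovery checked. Buffers: pH 6.5 HBSS with 200 μM BNPP on the donor side, pH 7.4 with BSA on the receiver side. Monolayers were 21-day cultures, TEER-verified, in duplicate wells.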

[7] = HEp-2, 72 h, read-out: RSV Hep2 EC50

| SMILES | STA Human Plasma 37 (Plasma stability) | EC50 ([1]; 72 h, read-out: RSV NHBE EC50) | half-life at 2 µM [2] | half-life at 2 µM (GI S9 stability; human, s9, pH 7.4) | EC50 ([3]; 48 h, read-out: SARS-CoV2 EC50) | CC50 [4] | EC50 [5, 7] | DM Caco2 A to B [6] | DM Caco2 B to A [6] | half-life at 2 µM (GI S9 stability; pH 7.4, human intestinal S9, read-out: GIS9 Human T1/2) | CC50 ([4]; uninfected MT-4 cells, 4-5 days, read-out: MT4 CC50) | EC50 ([1]; read-out: EC50 RSVFluc-NHBE 384 V2) | EC50 ([3]; A549, read-out: EC50 SARS CoV2 NanoLuc A549 384) | EC50 ([5]; HEp-2, read-out: EC50 RSVFluc-Hep2 384 V2) | logD (physchem) |
| --- | --- | --- | --- | --- | --- | --- | --- | --- | --- | --- | --- | --- | --- | --- | --- |
| CC(C)(C)COC(=O)OC[C@H]1O[C@@](C#N)(c2ccc3c(N)ncnn23)[C@H](O)[C@@H]1O [Compound 3, ((2R,3S,4R,5R)-5-(4-aminopyrrolo[2,1-f][1,2,4]triazin-7-yl)-5-cyano-3,4-dihydroxytetrahydrofuran-2-yl)methyl neopentyl carbonate] | 82.745 | 1600 nM | 0.8 min | 81 min | 796 nM | > 50000 nM | 545 nM | 1.23 | 9.8 |  |  |  |  |  |  |
| CCCOC(=O)OC[C@H]1O[C@@](C#N)(c2ccc3c(N)ncnn23)[C@H](O)[C@@H]1O [Compound 8, ((2R,3S,4R,5R)-5-(4-aminopyrrolo[2,1-f][1,2,4]triazin-7-yl)-5-cyano-3,4-dihydroxytetrahydrofuran-2-yl)methyl propyl carbonate] | 11.698 | 1840 nM | 0.58 min |  | 1010 nM |  | 301 nM |  |  | 159 min | > 50000 nM |  |  |  |  |
| COc1ccc(OC(=O)OC[C@H]2O[C@@](C#N)(c3ccc4c(N)ncnn34)[C@H](O)[C@@H]2O)cc1 [Compound 111, ((2R,3S,4R,5R)-5-(4-aminopyrrolo[2,1-f][1,2,4]triazin-7-yl)-5-cyano-3,4-dihydroxytetrahydrofuran-2-yl)methyl (4-methoxyphenyl) carbonate] | 35 |  | 3.93 min | 53.1 min |  | > 50000 nM |  | 0.625 | 11.22 |  |  | 1300 nM | 3420 nM | 220 nM | 1.5 |
| COC(C)(C)COC(=O)OC[C@H]1O[C@@](C#N)(c2ccc3c(N)ncnn23)[C@H](O)[C@@H]1O [Compound 54, ((2R,3S,4R,5R)-5-(4-aminopyrrolo[2,1-f][1,2,4]triazin-7-yl)-5-cyano-3,4-dihydroxytetrahydrofuran-2-yl)methyl (2-methoxy-2-methylpropyl) carbonate] | 108 | 1020 nM | 4.33 min | 692 min | 5690 nM | > 50000 nM | 587 nM | 0.25 | 3.8 |  |  |  |  |  |  |
| N#C[C@@]1(c2ccc3c(N)ncnn23)O[C@H](COC(=O)OC2CCCC2)[C@@H](O)[C@H]1O [Compound 12, ((2R,3S,4R,5R)-5-(4-aminopyrrolo[2,1-f][1,2,4]triazin-7-yl)-5-cyano-3,4-dihydroxytetrahydrofuran-2-yl)methyl cyclopentyl carbonate] | 35.623 | 1580 nM |  | 58 min | 2350 nM | > 50000 nM | 659 nM | 1.15 | 13.73 |  |  |  |  |  |  |
| N#C[C@@]1(c2ccc3c(N)ncnn23)O[C@H](COC(=O)OC2CC2)[C@@H](O)[C@H]1O [Compound 9, ((2R,3S,4R,5R)-5-(4-aminopyrrolo[2,1-f][1,2,4]triazin-7-yl)-5-cyano-3,4-dihydroxytetrahydrofuran-2-yl)methyl cyclopropyl carbonate] | 156.68 | 1810 nM |  | 311 min | 2280 nM | > 50000 nM | 784 nM | 0.39 | 5.17 |  |  |  |  |  |  |
| COC(=O)OC[C@H]1O[C@@](C#N)(c2ccc3c(N)ncnn23)[C@H](O)[C@@H]1O [Compound 5, ((2R,3S,4R,5R)-5-(4-aminopyrrolo[2,1-f][1,2,4]triazine-7-yl)-5-cyano-3,4-dihydroxytetrahydrofuran-2-yl)methyl methyl carbonate] | 1388.9 | 3550 nM | 74.8 min | ≥ 789 min | 13200 nM | > 50000 nM | 2900 nM |  |  |  |  |  |  |  |  |
| CC(C)COC(=O)OC[C@H]1O[C@@](C#N)(c2ccc3c(N)ncnn23)[C@H](O)[C@@H]1O [Compound 1, ((2R,3S,4R,5R)-S-(4-aminopyrrolo[2,1-f][1,2,4]triazin-7-yl)-5-cyano-3,4-dihydroxytetrahydrofuran-2-yl)methyl isobutyl carbonate] | 28.434 | 2180 nM | 1.45 min | 113 min | 1870 nM | > 46400 nM | 422 nM | 0.275 | 3.853 |  |  |  |  |  |  |
| N#C[C@@]1(c2ccc3c(N)ncnn23)O[C@H](COC(=O)Oc2ccccc2)[C@@H](O)[C@H]1O [Compound 7, ((2R,3S,4R,5R)-5-(4-aminopyrrolo[2,1-f][1,2,4]triazin-7-yl)-5-cyano-3,4-dihydroxytetrahydrofuran-2-yl)methyl phenyl carbonate] | 6.563 | 1340 nM |  | 54 min | 915 nM | 47400 nM | 416 nM | 0.52 | 8.98 |  |  |  |  |  |  |
| CC(C)(C)COC(=O)OC[C@H]1O[C@@](C#N)(c2ccc3c(=N)n(COP(=O)(O)O)cnn23)[C@H](O)[C@@H]1O [Compound 19, ((2R,3S,4R,5R)-5-cyano-3,4-dihydroxy-5-(4-imino-3-((phosphonooxy)methyl)-3,4-dihydropyrrolo[2,1-f][1,2,4]triazin-7-yl)tetrahydrofuran-2-yl)methyl neopentyl carbonate] | 1584 | 5400 nM |  | 27.4 min | 7700 nM | > 50000 nM | 1240 nM |  |  |  |  |  |  |  |  |
| COCCOC(=O)OC[C@H]1O[C@@](C#N)(c2ccc3c(N)ncnn23)[C@H](O)[C@@H]1O [Compound 10, ((2R,3S,4R,5R)-5-(4-aminopyrrolo[2,1-f][1,2,4]triazine-7-yl)-5-cyano-3,4-dihydroxytetrahydrofuran-2-yl)methyl (2-methoxyethyl) carbonate] | 43.569 | 2990 nM |  | ≥ 789 min | 14100 nM | > 50000 nM | 3960 nM | 0.08 | 1.39 |  |  |  |  |  |  |
| CC(C)COC(=O)Nc1ncnn2c([C@]3(C#N)O[C@H](COC(=O)OCC(C)C)[C@@H](O)[C@H]3O)ccc12 [Compound 2, isobutyl (7-((2R,3R,4S,5R)-2-cyano-3,4-dihydroxy-5-(((isobutoxycarbonyl)oxy)methyl)tetrahydrofuran-2-yl)pyrrolo[2,1-f][1,2,4]triazin-4-yl)carbamate] | 344.3 | 9600 nM |  | 157 min | > 50000 nM | > 50000 nM | 6610 nM | 1.17 | 8.69 |  |  |  |  |  |  |
